This is an account of results in ChEMBL document CHEMBL1201862, “PubChem BioAssay data set” (2004).

Some test systems named below: SK-MEL-2; SN12C; MDA-N; HCC 2998; A549; HCT-116; NCI-H522; CCRF-CEM; T47D; MOLT-4; 786-0; BT-549; MDA-MB-435; CAKI-1; HT-29; MCF7; MDA-MB-231; PC-3; NCI-H460; K562.
Test in all cases: NCI anticancer screen, dose series, 48 h

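Five concentrations, 48 hours, 96-well plates. Abbreviation: GI50, concentration required for 50% inhibition of growth.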 The source made the active and inactive calls. Rule as the data show it: active = GI50 up to about 1.1 µM and inactive = higher.

`COc1ccc(C2=C(Cl)c3cc(OC)c(OC)cc3C2=O)cc1OC`: the GI50 was 14.4 µM (inactive) in the assay with SK-MEL-2; 18 µM (inactive) in the assay with SN12C; 18.5 µM (inactive) with MDA-N; 22.6 µM (inactive) in the assay with HCC 2998; 36.9 µM (inactive) in the assay with A549; 4.22 µM (inactive) with HCT-116. In addition, the GI50 was 12.6 µM (inactive) with NCI-H522; 3.93 µM (inactive) in the assay with CCRF-CEM; 2.95 µM (inactive) in the assay with T47D; 3.63 µM (inactive) in the assay on MOLT-4; 3.43 µM (inactive) with 786-0; 16.1 µM (inactive) in the assay with BT-549. Besides, the GI50 was 15.9 µM (inactive) in the assay on MDA-MB-435; 2.28 µM (inactive) in the assay with CAKI-1; 5.38 µM (inactive) in the assay with HT-29; 13.1 µM (inactive) in the assay with MCF7; 16.4 µM (inactive) in the assay with MDA-MB-231.

Turning to `COc1cc(S(=O)(=O)N/N=C/C=C/c2ccccc2)c(OC)cc1NC(C)=O`, the GI50 in the assay with SK-MEL-2 is 47 µM (inactive); in the assay on SN12C it was 51.9 µM (inactive); in the assay on MDA-N, 78.9 µM (inactive); in the assay on A549 it was > 100 µM (inactive); with HCT-116 it was 91.2 µM (inactive); in the assay with NCI-H522, 25.2 µM (inactive). In addition, the GI50 in the assay with CCRF-CEM was 69.5 µM (inactive); in the assay with T47D it was 69.5 µM (inactive); in the assay on 786-0 it was 91.8 µM (inactive); with BT-549, 42.1 µM (inactive); in the assay on MDA-MB-435, 38.8 µM (inactive); in the assay on CAKI-1, 16 µM (inactive). Further, the GI50 in the assay with HT-29 is 9.62 µM (inactive); in the assay with PC-3 it was 77.8 µM (inactive); in the assay on MCF7, 52.2 µM (inactive).

For the molecule `CC1=CC2C(C(C)C)CC1C1C(=O)OC(=O)C21` (configuration not stated), the GI50 in the assay with SK-MEL-2 was > 100 µM (inactive); in the assay on SN12C, 79.3 µM (inactive); in the assay with HCC 2998 it was 30.9 µM (inactive); in the assay on A549, > 100 µM (inactive); with NCI-H460, > 100 µM (inactive); in the assay with HCT-116 it was 76.7 µM (inactive). Besides, the GI50 in the assay on NCI-H522 is 52.7 µM (inactive); in the assay on T47D, 49.8 µM (inactive); in the assay on 786-0 it was > 100 µM (inactive); with BT-549, 84.1 µM (inactive); in the assay with MDA-MB-435, > 100 µM (inactive); with HT-29, > 100 µM (inactive). The GI50 is 76.6 µM (inactive) in the assay on PC-3, > 100 µM (inactive) in the assay on MCF7, > 100 µM (inactive) in the assay with MDA-MB-231 and 39.7 µM (inactive) with K562.

Regarding `CCOC(=O)c1c2c(n(Cc3ccccc3)c1C)C(=O)C(=O)c1ccccc1-2`, the GI50 in the assay with SK-MEL-2 was 1.26 µM (inactive); in the assay on SN12C, 0.171 µM (active); in the assay with HCC 2998, 0.56 µM (active); in the assay with A549, 0.431 µM (active); with NCI-H460, 0.418 µM (active); with HCT-116 it was 0.235 µM (active). Moreover, the GI50 with NCI-H522 was 0.778 µM (active); in the assay with CCRF-CEM, 0.134 µM (active); in the assay with T47D, 0.579 µM (active); in the assay on MOLT-4, 0.17 µM (active); with 786-0 it was 0.56 µM (active); in the assay on BT-549 it was 0.337 µM (active). The GI50 is 0.0612 µM (active) in the assay on MDA-MB-435; 0.5 µM (active) in the assay with CAKI-1; 0.989 µM (active) with HT-29; 0.807 µM (active) in the assay with PC-3; 0.293 µM (active) with MCF7; 0.351 µM (active) in the assay on MDA-MB-231. Also, the GI50 with K562 is 0.122 µM (active).

Regarding `CC(C)CC(N)C(=O)Nc1ccc2ccccc2c1` (configuration not stated), the GI50 in the assay on SK-MEL-2, in the assay on SN12C, in the assay with MDA-N, with HCC 2998, in the assay on A549 and with HCT-116 was > 100 µM (inactive) throughout. The GI50 in the assay on NCI-H522, in the assay with CCRF-CEM, in the assay with T47D, in the assay on MOLT-4, in the assay on 786-0 and in the assay with BT-549 was > 100 µM (inactive) throughout. In addition, the GI50 with CAKI-1 is 63.1 µM (inactive); with HT-29, > 100 µM (inactive); in the assay on PC-3 it was > 100 µM (inactive); with MCF7, > 100 µM (inactive); in the assay with MDA-MB-231, > 100 µM (inactive); in the assay with K562, > 100 µM (inactive).

Take `O=c1c2nn[nH]c2nc2n1CC(c1ccccc1)S2` (configuration not stated): the GI50 in the assay on SN12C, in the assay with MDA-N, in the assay on HCC 2998, in the assay with A549, in the assay with NCI-H460 and in the assay with HCT-116 was > 100 µM (inactive) each time. Besides, the GI50 in the assay on CCRF-CEM, with T47D, in the assay on MOLT-4, in the assay on 786-0, in the assay on BT-549 and with MDA-MB-435 was > 100 µM (inactive) in each case. For the same molecule, the GI50 was 13 µM (inactive) in the assay with CAKI-1, > 100 µM (inactive) in the assay with MCF7, > 100 µM (inactive) with MDA-MB-231 and > 100 µM (inactive) in the assay with K562.

Turning to `COC(=O)c1c(O)ccc2c1c1c(n2Cc2ccc(Cl)cc2Cl)C(=O)c2ccccc2C1`, the GI50 is 60.4 µM (inactive) with SK-MEL-2; 23.1 µM (inactive) in the assay on SN12C; 52.8 µM (inactive) in the assay on MDA-N; 41.3 µM (inactive) with A549; 33.3 µM (inactive) in the assay on NCI-H460; 87.9 µM (inactive) with HCT-116. Also, the GI50 in the assay on CCRF-CEM was 23.2 µM (inactive); in the assay with T47D it was 40.6 µM (inactive); with MOLT-4 it was 39.1 µM (inactive); in the assay with 786-0 it was 74.5 µM (inactive); with BT-549 it was 75.9 µM (inactive); in the assay with MDA-MB-435, 45.1 µM (inactive). Further, the GI50 with HT-29 is 79.6 µM (inactive); in the assay with PC-3, 24.1 µM (inactive); with MCF7, 26.8 µM (inactive); with MDA-MB-231 it was 69.7 µM (inactive); with K562 it was 52.1 µM (inactive).

As to `CCOC(=O)C(NC(=O)CC(C)C)(Nc1ccc(S(=O)(=O)Nc2nc(C)cc(C)n2)cc1)C(F)(F)F` (configuration not stated), the GI50 was > 100 µM (inactive) with SK-MEL-2; > 100 µM (inactive) in the assay with SN12C; > 100 µM (inactive) with MDA-N; 7.87 µM (inactive) with HCC 2998; > 100 µM (inactive) in the assay on A549; > 100 µM (inactive) in the assay with NCI-H460. For the same molecule, the GI50 with HCT-116, with NCI-H522, in the assay on CCRF-CEM, with T47D, with MOLT-4 and with 786-0 was > 100 µM (inactive) in each case. Further, the GI50 in the assay with BT-549, in the assay on MDA-MB-435, in the assay on CAKI-1, with HT-29, in the assay on PC-3 and with MDA-MB-231 was > 100 µM (inactive) throughout. Besides, the GI50 with K562 was > 100 µM (inactive).

For `COc1ccccc1N1C(=O)C2C3c4ccccc4C(OC(C)=O)(c4ccccc43)C2C1=O` (configuration not stated), the GI50 with SN12C is > 100 µM (inactive); in the assay with MDA-N it was > 100 µM (inactive); in the assay on HCC 2998, > 100 µM (inactive); in the assay on A549, > 100 µM (inactive); in the assay on NCI-H460 it was > 100 µM (inactive); in the assay on HCT-116, 57.3 µM (inactive). The GI50 in the assay with CCRF-CEM was > 100 µM (inactive); in the assay with T47D it was > 100 µM (inactive); in the assay with MOLT-4, > 100 µM (inactive); in the assay on 786-0, 39.3 µM (inactive); with BT-549, 49.9 µM (inactive); in the assay with CAKI-1 it was > 100 µM (inactive). Also, the GI50 with HT-29 was > 100 µM (inactive); with PC-3, > 100 µM (inactive); with MCF7 it was 72.3 µM (inactive); in the assay with MDA-MB-231 it was > 100 µM (inactive); in the assay on K562 it was > 100 µM (inactive).

For the molecule `C=C1CC=CC(C)(C)C1C/C=C(\C)C(O)CBr` (configuration not stated), the GI50 in the assay on SK-MEL-2 was > 100 µM (inactive); in the assay with SN12C it was > 100 µM (inactive); with MDA-N, 42.6 µM (inactive); in the assay with HCC 2998 it was 87.9 µM (inactive); in the assay on A549, 74.3 µM (inactive); in the assay on NCI-H460 it was 95.7 µM (inactive). The GI50 with HCT-116 was 18.7 µM (inactive); in the assay on NCI-H522, 4.2 µM (inactive); in the assay with CCRF-CEM, 47.8 µM (inactive); in the assay on MOLT-4, 21.9 µM (inactive); in the assay on 786-0, 28.6 µM (inactive); with BT-549, 97.3 µM (inactive). Besides, the GI50 in the assay with MDA-MB-435 is 39.9 µM (inactive); in the assay with CAKI-1, 23.2 µM (inactive); with HT-29, 51.8 µM (inactive); in the assay on PC-3 it was 47.6 µM (inactive); in the assay on MCF7, 36.2 µM (inactive); in the assay on MDA-MB-231, > 100 µM (inactive). Further, the GI50 in the assay on K562 is 67.8 µM (inactive).

Consider `CC1(C)OC(C(C)(C)O)C(C(C)(C)O)O1` (configuration not stated), for which the GI50 in the assay on SK-MEL-2, in the assay on SN12C, with MDA-N, with HCC 2998, in the assay with A549 and in the assay on NCI-H460 was > 100 µM (inactive) throughout. Moreover, the GI50 in the assay on HCT-116, with NCI-H522, with CCRF-CEM, in the assay with T47D, with MOLT-4 and with 786-0 was > 100 µM (inactive) in each case. Moreover, the GI50 with BT-549, in the assay on CAKI-1, in the assay with HT-29, in the assay on PC-3, with MCF7 and with MDA-MB-231 was > 100 µM (inactive) each time. Besides, the GI50 in the assay on K562 was > 100 µM (inactive).
